Test results taken from the supplement of paper PMC10307832.

Columns and labels:
Assay in all cases: relative viability (nuclei count vs DMSO), 5 days (fraction); higher = more cells survive
Ibrutinib + Tozasertib = compound: C=CC(=O)N1CCC[C@@H](n2nc(-c3ccc(Oc4ccccc4)cc3)c3c(N)ncnc32)C1 [Ibrutinib] + Cc1cc(Nc2cc(N3CCN(C)CC3)nc(Sc3ccc(NC(=O)C4CC4)cc3)n2)n[nH]1 [Tozasertib] (partner 0.1 µM)
In short: (§1)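 Lung cancer cell lines in 1536-well plates were dosed by pin tool the day after seeding, either with one drug alone or with a fixed anchor-drug dose plus five library-drug doses (not always all listed) in √10 steps. After 5 days, cells were fixed and their nuclei stained in one step (final 0.05% Triton X-100, 1% formaldehyde, 1 ug/ml Hoechst), then counted on 4× images. Relative viability is the nuclei count in treated wells divided by that in vehicle wells. Values are medians of duplicate plates.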

PAC-1 + Pictilisib = compound: C=CCc1cccc(/C=N/NC(=O)CN2CCN(Cc3ccccc3)CC2)c1O [PAC-1] + CS(=O)(=O)N1CCN(Cc2cc3nc(-c4cccc5[nH]ncc45)nc(N4CCOCC4)c3s2)CC1 [Pictilisib] (partner 1 µM)
In short: as §1

PAC-1 + Bortezomib = compound: C=CCc1cccc(/C=N/NC(=O)CN2CCN(Cc3ccccc3)CC2)c1O [PAC-1] + CC(C)C[C@H](NC(=O)[C@H](Cc1ccccc1)NC(=O)c1cnccn1)B(O)O [Bortezomib] (partner 0.002 µM)
In short: as §1

PAC-1 + Olaparib = compound: C=CCc1cccc(/C=N/NC(=O)CN2CCN(Cc3ccccc3)CC2)c1O [PAC-1] + O=C(c1cc(Cc2n[nH]c(=O)c3ccccc23)ccc1F)N1CCN(C(=O)C2CC2)CC1 [Olaparib] (partner 8 µM)
In short: as §1

Cell Line	relative viability (Ibrutinib + Tozasertib; first compound 0.01581 µM)	relative viability (Ibrutinib + Tozasertib; first compound 0.05 µM)	relative viability (Ibrutinib + Tozasertib; first compound 0.1581 µM)	relative viability (Ibrutinib + Tozasertib; first compound 0.5 µM)	relative viability (PAC-1 + Pictilisib; first compound 0.02 µM)	relative viability (PAC-1 + Pictilisib; first compound 0.06325 µM)	relative viability (PAC-1 + Pictilisib; first compound 0.2 µM)	relative viability (PAC-1 + Pictilisib; first compound 2 µM)	relative viability (PAC-1 + Bortezomib; first compound 0.02 µM)	relative viability (PAC-1 + Bortezomib; first compound 0.06325 µM)	relative viability (PAC-1 + Bortezomib; first compound 0.2 µM)	relative viability (PAC-1 + Bortezomib; first compound 2 µM)	relative viability (PAC-1 + Olaparib; first compound 0.02 µM)	relative viability (PAC-1 + Olaparib; first compound 0.06325 µM)	relative viability (PAC-1 + Olaparib; first compound 0.2 µM)	relative viability (PAC-1 + Olaparib; first compound 2 µM)	relative viability (Ibrutinib + Tozasertib; first compound 0.005 µM)
BEN	0.459	0.471	0.561	0.536	0.557	0.534	0.536	0.51	0.742	0.77	0.797	0.725	1.14	1.05	0.885	0.872	
NCI-H2023	0.303	0.324	0.394	0.324	0.224	0.262	0.213	0.258	1.2	1.04	0.87	1.02	0.468	0.425	0.449	0.257	0.388
UMC-11	0.203	0.203	0.203	0.188	0.843	0.783	0.754	0.815	0.693	0.55	0.605	0.782	0.411	0.366	0.366	0.377	0.194
NCI-H1755	0.574	0.695	0.613	0.528	0.445	0.434	0.391	0.438	0.99	0.961	0.938	0.907	0.879	0.837	0.849	0.826	0.628
NCI-H1666	0.59	0.602	0.583	0.536	0.501	0.398	0.358	0.427	0.849	0.809	0.828	0.912	0.688	0.745	0.75	0.729	0.628
NCI-H23	0.361	0.455	0.335	0.382	0.365	0.461	0.414	0.473	0.956	1.01	0.866	0.995	0.28	0.284	0.313	0.352	0.34
COR-L23	0.214	0.247	0.227	0.181	0.853	0.848	0.644	0.855	1.1	0.93	0.913	0.966	0.308	0.334		0.379	0.209
PC-14	0.536	0.568	0.556	0.452	0.667	0.681	0.623	0.677	0.937	0.953	0.754	0.927	0.255	0.275	0.288	0.298	0.646
LCLC-97TM1	0.426	0.216	0.241	0.224		0.206	0.178	0.231	0.437	0.901	0.668	0.794	0.364	0.524		0.338	0.601
HOP-62	0.408	0.467	0.403	0.473	0.653	0.573	0.689	0.726	0.976	0.986	0.836	0.673	0.408	0.273	0.438	0.502	0.447
NCI-H727	0.578	0.624		0.533	0.338	0.525	0.453	0.283	0.905	0.925	0.944	0.818	0.753	0.715	0.568	0.68	0.542
NCI-H1734	0.245	0.299	0.257	0.257	0.446	0.448	0.431	0.468	0.904	0.995	0.877	0.955	0.655	0.611	0.271	0.632	0.272
NCI-H1651	0.7	0.757	0.668	0.944	0.579	0.647	0.59	0.535	0.905	0.929	0.88	0.968	0.149	0.2	0.181	0.193	0.558
NCI-H1650	0.36	0.4	0.394	0.302	0.53	0.608	0.582	0.515	0.198	0.18	0.183	0.229	0.709	0.751	0.726	0.674	0.329
NCI-H2009	0.778	0.77	0.788	0.831	0.832	0.866	0.792	0.789	1.01	0.994	0.897	0.956	0.681	0.655	0.677	0.652	0.737
NCI-H2347	0.643	0.739	0.532	0.548	0.51	0.723	0.604	0.591	1.07	0.912	1.08	0.875	0.544	0.622	0.551	0.515	
NCI-H460	0.321	0.519	0.409	0.494	0.281	0.405	0.355	0.39	1.3	1.02	0.859	1.14	0.4	0.457	0.466	0.369	0.716
LC-2-ad	0.413	0.388	0.449	0.382	0.523	0.588	0.511	0.56	0.981	0.971	0.999	0.957	0.704	0.712	0.35	0.635	0.497

Cell Line	relative viability (Ibrutinib + Tozasertib; first compound 0.01581 µM)	relative viability (Ibrutinib + Tozasertib; first compound 0.05 µM)	relative viability (Ibrutinib + Tozasertib; first compound 0.1581 µM)	relative viability (Ibrutinib + Tozasertib; first compound 0.5 µM)	relative viability (PAC-1 + Pictilisib; first compound 0.02 µM)	relative viability (PAC-1 + Pictilisib; first compound 0.06325 µM)	relative viability (PAC-1 + Pictilisib; first compound 0.2 µM)	relative viability (PAC-1 + Pictilisib; first compound 2 µM)	relative viability (PAC-1 + Bortezomib; first compound 0.02 µM)	relative viability (PAC-1 + Bortezomib; first compound 0.06325 µM)	relative viability (PAC-1 + Bortezomib; first compound 0.2 µM)	relative viability (PAC-1 + Bortezomib; first compound 2 µM)	relative viability (PAC-1 + Olaparib; first compound 0.02 µM)	relative viability (PAC-1 + Olaparib; first compound 0.06325 µM)	relative viability (PAC-1 + Olaparib; first compound 0.2 µM)	relative viability (PAC-1 + Olaparib; first compound 2 µM)	relative viability (Ibrutinib + Tozasertib; first compound 0.005 µM)
NCI-H596	0.922	0.858	0.943	0.722	0.424	0.423	0.341	0.422	0.895	1.09	1.56	1.04	0.633	0.715	0.607	0.665	
A-427	0.185	0.281	0.23	0.212	0.689	0.748	0.724	0.831	1.05	1.01	0.963	0.958	0.786	0.776	0.666	0.711	0.22
HCC-44	0.945	0.734		0.998	0.455	0.697	0.666	0.648	0.894	0.885	0.947	0.934	1.05	0.906	0.963	0.986	1.1
HCC-827	0.39	0.513	0.437	0.224	1.12	1.01	0.99	0.983	1.1	1.01	1.07	0.978	0.65	0.696	0.6	0.646	0.396
NCI-H1915	0.439	0.447	0.485	0.428	0.875	1.02	0.929	0.951	0.995	0.964	0.907	1.02	0.234	0.262	0.22	0.274	0.498
NCI-H322M	0.459	0.415	0.474	0.354	0.4	0.513	0.499	0.332	1.21	1.31	1.28	1.07	0.762	0.782	0.74	0.834	0.426
EKVX	0.332	0.4	0.426	0.269	0.453	0.415	0.374	0.488	1.02	1.04	1.03	0.991	0.987	0.847	0.751	0.764	0.427
EMC-BAC-2	0.295	0.31	0.325	0.286	0.549	0.536	0.566	0.555	1.09	1.04	1.11	1.13	0.523	0.481	0.488	0.504	0.303
HCC-15	0.413	0.563	0.396	0.357	0.683	0.731	0.743	0.783	1.03	1.11	1.01	1.04	0.644	0.775	0.69	0.771	0.464
LXF-289	0.192	0.164	0.248	0.197	0.846	0.727	0.739	0.792	0.983	1.01	1.01	0.995	1.07	1.03	1.05	1.03	0.22
NCI-H838	0.261	0.285	0.27	0.277	0.427	0.526	0.387	0.455	0.732	0.717	0.644	0.711	0.715	0.735	0.727	0.656	0.261
NCI-H520	0.341	0.427	0.381	0.39	0.266	0.303	0.256	0.35	0.716	0.624	0.607	0.421	0.382	0.383	0.361	0.33	0.428
SW 1573	0.169	0.195	0.174	0.184	0.475	0.448	0.394	0.457	0.947	1.08	1.01	1.13	0.446	0.426	0.442	0.41	0.189
201T	0.916	0.971	0.959	0.849	0.561	0.702	0.75	0.672	1.08	1.15	1.13	1.05	0.817	0.859	0.857	0.818	0.984
NCI-H1437	0.373	0.472	0.403	0.391	0.495	0.474	0.415	0.391	0.513	0.525	0.414	0.383	0.606	0.632	0.555	0.471	0.437
NCI-H1975	0.688	0.695	0.806	0.403	0.281	0.304	0.308	0.303	0.35	0.396	0.378	0.386	0.779	0.809	0.811	0.703	0.82
RERF-LC-KJ	0.5	0.467	0.537	0.544	0.553	0.471	0.423	0.552	1.15	1.16	1.08	1.17	0.891	0.86	0.929	0.83	0.59
